Results as given in a compilation of properties of binary mixtures (doi:10.1007/s10953-008-9260-8).

Assay: xn = mol fraction of the nth substance listed
Conditions: 101 kPa

CCCC[n+]1ccn(C)c1.F[P-](F)(F)(F)(F)F + CCCC[n+]1ccn(C)c1.F[B-](F)(F)F
viscosity [mPa·s]
Conditions	298.15 K	299.15 K	301.15 K	302.15 K	303.15 K	304.15 K	305.15 K	307.15 K	308.15 K
x1 = 0.0568	106.8	101.3	–	–	–	79	75.3	68.5	65.39
x1 = 0.1034	–	–	–	94.4	89.7	85.5	81.4	74.3	70.9
x1 = 0.2095	128.1	–	109.5	103.9	98.8	94.2	89.5	81.3	–
x1 = 0.3012	137.4	130.1	117	111.1	105.4	100.2	95.3	86.4	82.4
x1 = 0.3825	146.7	139.9	125.6	–	113	107.1	102.1	–	–
x1 = 0.4647	157.7	145.6	131.8	–	118.1	111.8	106.9	96.4	91.9
x1 = 0.4999	169.3	159.7	–	135.8	128.2	–	–	103.9	98.4
x1 = 0.5385	168.5	159.6	142.9	134.8	–	121.6	114.9	104.1	–
x1 = 0.5974	182.5	172.4	156.7	145.4	137.6	130.5	123.9	111.8	106
x1 = 0.6928	201.4	190.1	169.9	160.9	155.3	144.1	–	123.3	116.9
x1 = 0.833	–	214	190.2	179.5	169.7	160.5	154.5	–	129.2
x1 = 0.8877	–	224	199	187.7	177.3	167.5	159	142.2	134.8
x1 = 0.945	249	234	208	196.2	185.4	175.3	–	–	142.5
x1 = 1	279	–	–	218	206	194.8	183.8	164.5	–

CCCC[n+]1ccn(C)c1.F[B-](F)(F)F + CCCCCC[n+]1ccn(C)c1.F[B-](F)(F)F
x1 = 1
Conditions	viscosity [mPa·s]
298.15 K	106.4
299.15 K	101
301.15 K	91.1
302.15 K	86.7
303.15 K	82.6
304.15 K	78.9
307.15 K	68.5
308.15 K	65.4

CCCC[n+]1ccn(C)c1.F[B-](F)(F)F + CCCC[n+]1ccn(C)c1.F[P-](F)(F)(F)(F)F
x2 = 0
Conditions	viscosity [mPa·s]
298.15 K	107.2
302.15 K	87.5
304.15 K	79.6
305.15 K	75.9
307.15 K	69.1
308.15 K	66.1

CC[n+]1ccn(C)c1.F[B-](F)(F)F + CCCCCC[n+]1ccn(C)c1.F[B-](F)(F)F
x1 = 1
Conditions	viscosity [mPa·s]
298.15 K	35.8
301.15 K	32.15
302.15 K	31.06
303.15 K	30.06
304.15 K	29.01
305.15 K	28.13
307.15 K	26.38

CCCCCC[n+]1ccn(C)c1.F[B-](F)(F)F + CCCC[n+]1ccn(C)c1.F[B-](F)(F)F
viscosity [mPa·s]
Conditions	298.15 K	299.15 K	301.15 K	302.15 K	303.15 K	304.15 K	305.15 K	307.15 K	308.15 K
x2 = 0	209	197.3	175.8	165.9	157	148.6	140.7	126.7	120
x2 = 0.054	200.2	188.7	168.3	160.4	147.5	142.5	135.7	–	117.4
x2 = 0.103	–	–	164.5	156.8	147.1	–	132	119	–
x2 = 0.2076	172.4	161.3	145	137.3	130.2	122.8	117.3	106.1	101
x2 = 0.2995	167.3	161.3	141.6	134.2	127.2	120.6	114.6	–	98.5
x2 = 0.3602	165.7	156.7	140.4	–	–	119.8	–	102.6	–
x2 = 0.4383	158.7	149	133.4	126.3	119.7	113.7	–	97.4	–
x2 = 0.5047	149.8	144	129.1	122.4	116.1	–	104.7	94.6	90
x2 = 0.555	144	135.9	122.2	–	–	104.4	99.3	90	85.9
x2 = 0.598	142.4	134.7	121.1	114.9	108.6	103.6	–	89.3	85.2
x2 = 0.809	122.3	–	–	99.2	–	89.9	–	77.7	74.5
x2 = 0.8917	–	109.5	–	–	–	85	81	73.6	70.3

CCCC[n+]1ccn(C)c1.F[B-](F)(F)F + CCCC[n+]1ccn(C)c1.COS(=O)(=O)[O-]
x1 = 1
Conditions	viscosity [mPa·s]
298.15 K	108.9
299.15 K	103.5
301.15 K	93.2
303.15 K	84.5
304.15 K	80.5
307.15 K	69.9
308.15 K	66.8

CCCCCC[n+]1ccn(C)c1.F[B-](F)(F)F + CC[n+]1ccn(C)c1.F[B-](F)(F)F
viscosity [mPa·s]
Conditions	298.15 K	299.15 K	301.15 K	302.15 K	303.15 K	304.15 K	305.15 K	307.15 K	308.15 K
x2 = 0	–	–	177.2	–	160.9	148.4	141.2	127.5	120.7
x2 = 0.0545	184.1	173.9	–	147.1	139.3	132.4	125.1	113.1	107.3
x2 = 0.1196	171.7	–	145.5	–	130.2	123.7	117.7	106	100.8
x2 = 0.1803	158.1	–	–	125.9	–	113.4	108	97.5	–
x2 = 0.3145	128.3	–	109.7	104.1	99.1	94.2	–	81.4	–
x2 = 0.4061	–	106	95.9	91.3	87	82.8	78.9	71.9	68.8
x2 = 0.446	104.5	99.3	89.9	85.6	81.6	77.7	74.3	67.8	64.8
x2 = 0.4938	96	–	82.7	78.6	75.1	71.7	–	62.6	–
x2 = 0.5526	86.7	82.5	75	71.4	–	65.3	62.36	57.17	54.84
x2 = 0.6006	78.3	–	68.1	64.9	–	59.61	–	52.51	–
x2 = 0.7059	64.3	61.64	56.52	54.22	–	–	47.93	44.34	42.66
x2 = 0.793	–	–	47.42	45.56	–	42.09	–	–	–
x2 = 0.8516	48.1	46.22	–	–	39.58	38.13	36.71	34.2	33
x2 = 0.9022	43.3	–	–	–	35.77	–	–	–	–

CCCC[n+]1ccn(C)c1.COS(=O)(=O)[O-] + CCCC[n+]1ccn(C)c1.F[B-](F)(F)F
viscosity [mPa·s]
Conditions	298.15 K	299.15 K	301.15 K	302.15 K	303.15 K	304.15 K	305.15 K	307.15 K	308.15 K
x2 = 0	215	–	181.2	–	162.3	156.8	145.7	131.2	124.5
x2 = 0.1209	192.5	–	–	153.9	145.8	138.2	–	118.2	–
x2 = 0.2142	188.2	177.6	–	147	142.2	134.8	–	115.2	109.5
x2 = 0.3057	180.2	170.3	152.3	–	136.7	–	123.2	111.2	105.9
x2 = 0.406	168.1	160.7	142.4	135	–	121.4	115	104	–
x2 = 0.4358	–	151.3	–	129.3	122.4	116	110	–	94.5
x2 = 0.5118	–	147.4	132.1	125.1	–	112.7	107	96.8	92
x2 = 0.5412	149.5	143.6	128.6	–	115.8	–	104	93.9	89.6
x2 = 0.6026	–	138.4	124.1	–	111.4	105.7	–	–	86.8
x2 = 0.648	141.6	133.8	120	–	108	102.4	97.1	87.8	83.6
x2 = 0.6934	137.5	130	–	110.8	105.1	–	95.1	86.2	82
x2 = 0.7813	128.4	121.5	–	103.9	98.7	93.8	89.3	81.2	77.4
x2 = 0.9005	117.6	111.5	100.7	96	90.7	86.9	–	75.4	72.6
x2 = 0.9447	–	105.3	95.1	90.7	86.2	82	–	71.1	–
